According to ChEMBL document CHEMBL1201862, “PubChem BioAssay data set” (2004):
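Compound exposure: 48 hours, 5 concentrations, 96-well plates. GI50 is the concentration that inhibits growth by half.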 Activity calls are given as the source filed them. Rule as the data show it: active = GI50 up to about 1.1 µM and inactive = higher.

How the values were obtained:
Assay in all cases: DTP human tumour cell line panel, 48 h
[1] = test system: TK-10
[2] = test system: SNB-75
[3] = test system: SF-295
[4] = test system: CAKI-1
[5] = test system: SK-MEL-28
[6] = test system: PC-3
[7] = test system: UACC-257
[8] = test system: NCI-H522
[9] = test system: M14
[10] = test system: A549
[11] = test system: CCRF-CEM
[12] = test system: A498
[13] = test system: 786-0
[14] = test system: EKVX
[15] = test system: SF-539
[16] = test system: UO-31
[17] = test system: IGROV-1
[18] = test system: SR
[19] = test system: HL-60
[20] = test system: HOP-92
[21] = test system: MDA-N
[22] = test system: ACHN
[23] = test system: MDA-MB-435
[24] = test system: KM12
[25] = test system: HCC 2998
[26] = test system: HOP-62
[27] = test system: OVCAR-4
[28] = test system: T47D
[29] = test system: OVCAR-5
[30] = test system: HCT-116
[31] = test system: MOLT-4
[32] = test system: NCI-H226
[33] = test system: OVCAR-3
[34] = test system: NCI/ADR-RES
[35] = test system: NCI-H23
[36] = test system: LOX IMVI
[37] = test system: Hs-578T
[38] = test system: SNB-19
[39] = test system: BT-549
[40] = test system: COLO 205
[41] = test system: RXF 393
[42] = test system: SF-268
[43] = test system: HT-29
[44] = test system: SW-620
[45] = test system: MCF7
[46] = test system: SK-MEL-5
[47] = test system: NCI-H460
[48] = test system: U-251
[49] = test system: MDA-MB-231
[50] = test system: UACC-62
[51] = test system: DU-145
[52] = test system: HCT-15
[53] = test system: SN12C
[54] = test system: SK-MEL-2
[55] = test system: RPMI-8226
[56] = test system: K562
[57] = test system: OVCAR-8
[58] = test system: SK-OV-3
[59] = test system: Malme-3M

SMILES: CCOC(=O)c1ccc(OCc2nc3cc(C(F)(F)F)ccc3nc2-c2ccccc2)cc1
- GI50 [1]: > 100 µM (inactive)
- GI50 [2]: > 100 µM (inactive)
- GI50 [3]: > 100 µM (inactive)
- GI50 [4]: > 100 µM (inactive)
- GI50 [5]: > 100 µM (inactive)
- GI50 [6]: > 100 µM (inactive)
- GI50 [7]: > 100 µM (inactive)
- GI50 [8]: > 100 µM (inactive)
- GI50 [9]: > 100 µM (inactive)
- GI50 [10]: > 100 µM (inactive)
- GI50 [11]: > 100 µM (inactive)
- GI50 [12]: > 100 µM (inactive)
- GI50 [13]: > 100 µM (inactive)
- GI50 [14]: > 100 µM (inactive)
- GI50 [15]: > 100 µM (inactive)
- GI50 [16]: > 100 µM (inactive)
- GI50 [17]: > 100 µM (inactive)
- GI50 [18]: 42.1 µM (inactive)
- GI50 [19]: > 100 µM (inactive)
- GI50 [20]: > 100 µM (inactive)
- GI50 [21]: > 100 µM (inactive)
- GI50 [22]: > 100 µM (inactive)
- GI50 [23]: > 100 µM (inactive)
- GI50 [24]: > 100 µM (inactive)
- GI50 [25]: > 100 µM (inactive)
- GI50 [26]: > 100 µM (inactive)
- GI50 [27]: > 100 µM (inactive)
- GI50 [28]: > 100 µM (inactive)
- GI50 [29]: > 100 µM (inactive)
- GI50 [30]: > 100 µM (inactive)
- GI50 [31]: > 100 µM (inactive)
- GI50 [32]: > 100 µM (inactive)
- GI50 [33]: > 100 µM (inactive)
- GI50 [34]: > 100 µM (inactive)
- GI50 [35]: > 100 µM (inactive)
- GI50 [36]: > 100 µM (inactive)
- GI50 [37]: > 100 µM (inactive)
- GI50 [38]: > 100 µM (inactive)
- GI50 [39]: > 100 µM (inactive)
- GI50 [40]: > 100 µM (inactive)
- GI50 [41]: > 100 µM (inactive)
- GI50 [42]: > 100 µM (inactive)
- GI50 [43]: > 100 µM (inactive)
- GI50 [44]: > 100 µM (inactive)
- GI50 [45]: > 100 µM (inactive)
- GI50 [46]: 44 µM (inactive)
- GI50 [47]: 97.9 µM (inactive)
- GI50 [48]: > 100 µM (inactive)
- GI50 [49]: > 100 µM (inactive)
- GI50 [50]: > 100 µM (inactive)
- GI50 [51]: > 100 µM (inactive)
- GI50 [52]: > 100 µM
- GI50 [53]: > 100 µM (inactive)
- GI50 [54]: > 100 µM (inactive)
- GI50 [55]: > 100 µM (inactive)
- GI50 [56]: 74.3 µM (inactive)
- GI50 [57]: > 100 µM (inactive)

SMILES: CC(=O)OC1OC(c2ccoc2)C[C@@]12C1CCC3O[C@]3(C)[C@]1(C)C[C@H](OC(C)=O)[C@H]2C (some centres not stated)
- GI50 [1]: > 75 µM (inactive)
- GI50 [2]: > 75 µM (inactive)
- GI50 [3]: > 75 µM (inactive)
- GI50 [4]: > 75 µM (inactive)
- GI50 [5]: > 75 µM (inactive)
- GI50 [6]: 44.7 µM (inactive)
- GI50 [7]: > 75 µM (inactive)
- GI50 [8]: > 75 µM (inactive)
- GI50 [9]: > 75 µM (inactive)
- GI50 [10]: > 75 µM (inactive)
- GI50 [11]: 38.1 µM (inactive)
- GI50 [12]: > 75 µM (inactive)
- GI50 [13]: > 75 µM (inactive)
- GI50 [14]: > 75 µM (inactive)
- GI50 [15]: > 75 µM (inactive)
- GI50 [16]: 70.8 µM (inactive)
- GI50 [17]: > 75 µM (inactive)
- GI50 [18]: > 75 µM (inactive)
- GI50 [19]: 42.9 µM (inactive)
- GI50 [20]: 72.8 µM (inactive)
- GI50 [58]: > 75 µM (inactive)
- GI50 [21]: > 75 µM (inactive)
- GI50 [22]: > 75 µM (inactive)
- GI50 [23]: > 75 µM (inactive)
- GI50 [24]: > 75 µM (inactive)
- GI50 [25]: > 75 µM (inactive)
- GI50 [27]: 59.2 µM (inactive)
- GI50 [28]: 35.2 µM (inactive)
- GI50 [29]: > 75 µM (inactive)
- GI50 [30]: > 75 µM (inactive)
- GI50 [31]: > 75 µM (inactive)
- GI50 [32]: > 75 µM (inactive)
- GI50 [33]: > 75 µM (inactive)
- GI50 [34]: > 75 µM (inactive)
- GI50 [35]: 74.1 µM (inactive)
- GI50 [36]: > 75 µM (inactive)
- GI50 [37]: > 75 µM (inactive)
- GI50 [38]: > 75 µM (inactive)
- GI50 [39]: > 75 µM (inactive)
- GI50 [40]: > 75 µM (inactive)
- GI50 [41]: > 75 µM (inactive)
- GI50 [42]: > 75 µM (inactive)
- GI50 [43]: > 75 µM (inactive)
- GI50 [44]: > 75 µM (inactive)
- GI50 [45]: 44.9 µM (inactive)
- GI50 [46]: > 75 µM (inactive)
- GI50 [47]: 58.3 µM (inactive)
- GI50 [48]: > 75 µM (inactive)
- GI50 [49]: 45.9 µM (inactive)
- GI50 [50]: 51.3 µM (inactive)
- GI50 [51]: > 75 µM (inactive)
- GI50 [52]: > 75 µM
- GI50 [53]: > 75 µM (inactive)
- GI50 [54]: > 75 µM (inactive)
- GI50 [55]: 44 µM (inactive)
- GI50 [56]: > 75 µM (inactive)
- GI50 [57]: > 75 µM (inactive)

SMILES: CC(=O)c1sc(=N)n(-c2c(C)cccc2C)c1C
- GI50 [1]: > 100 µM (inactive)
- GI50 [2]: > 100 µM (inactive)
- GI50 [59]: > 100 µM (inactive)
- GI50 [5]: > 100 µM (inactive)
- GI50 [6]: > 100 µM (inactive)
- GI50 [8]: > 100 µM (inactive)
- GI50 [9]: > 100 µM (inactive)
- GI50 [10]: > 100 µM (inactive)
- GI50 [11]: > 100 µM (inactive)
- GI50 [12]: > 100 µM (inactive)
- GI50 [13]: > 100 µM (inactive)
- GI50 [14]: > 100 µM (inactive)
- GI50 [15]: > 100 µM (inactive)
- GI50 [16]: > 100 µM (inactive)
- GI50 [17]: > 100 µM (inactive)
- GI50 [18]: > 100 µM (inactive)
- GI50 [19]: > 100 µM (inactive)
- GI50 [58]: > 100 µM (inactive)
- GI50 [21]: > 100 µM (inactive)
- GI50 [22]: > 100 µM (inactive)
- GI50 [23]: > 100 µM (inactive)
- GI50 [24]: > 100 µM (inactive)
- GI50 [25]: > 100 µM (inactive)
- GI50 [26]: > 100 µM (inactive)
- GI50 [27]: > 100 µM (inactive)
- GI50 [28]: > 100 µM (inactive)
- GI50 [29]: > 100 µM (inactive)
- GI50 [31]: > 100 µM (inactive)
- GI50 [32]: > 100 µM (inactive)
- GI50 [33]: > 100 µM (inactive)
- GI50 [34]: > 100 µM (inactive)
- GI50 [35]: > 100 µM (inactive)
- GI50 [36]: > 100 µM (inactive)
- GI50 [37]: > 100 µM (inactive)
- GI50 [38]: > 100 µM (inactive)
- GI50 [39]: > 100 µM (inactive)
- GI50 [40]: > 100 µM (inactive)
- GI50 [41]: > 100 µM (inactive)
- GI50 [42]: > 100 µM (inactive)
- GI50 [43]: > 100 µM (inactive)
- GI50 [44]: > 100 µM (inactive)
- GI50 [45]: > 100 µM (inactive)
- GI50 [46]: > 100 µM (inactive)
- GI50 [47]: > 100 µM (inactive)
- GI50 [48]: > 100 µM (inactive)
- GI50 [49]: > 100 µM (inactive)
- GI50 [50]: > 100 µM (inactive)
- GI50 [51]: > 100 µM (inactive)
- GI50 [52]: > 100 µM
- GI50 [53]: > 100 µM (inactive)
- GI50 [54]: > 100 µM (inactive)
- GI50 [55]: > 100 µM (inactive)
- GI50 [56]: > 100 µM (inactive)
